Five substances from patent publication US9833497B2, “Human originated EGF domain proteins and use of the same” (CHENGDU SOURCEBIO LIMITED-LIABILITY COMPANY, priority 2013, dated 2017) can be followed below.

Common to all, as to format: cell-based
One assay relates to Enterobacter cloacae. Kind of assay: MIC against Gram-negative bacteria: Enterobacter cloacae. To be noted: for MIC (μg/mL) E. cloacae / MIC against E. cloacae: 5×10^5 CFU/mL; for MIC against E. cloacae: 96-well plate, 37° C., 10 h. Summed up:
(§1)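 Bacteria grown in LB at 37° C with shaking to McFarland 0.5, pelleted and resuspended in fresh LB, then seeded at 5×10^5 CFU/mL per well. Purified recombinant human EGF domain proteins were two-fold serially diluted in triplicate and plates shaken at 37° C, 175 rpm. MIC is the lowest protein concentration with no bacterial growth.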

A further assay relates to E. coli DH5α. Briefly: Antibacterial activity: MIC and growth curve against E. coli DH5α in 96-well plate. Conditions: minimal inhibitory concentration against E. coli DH5α; 96-well plate, 5×10^5 CFU/mL, 37° C., judged after 8 h. Summed up: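 Log-phase DH5α (OD600 about 0.5, 37° C, 185 rpm in LB) was pelleted, resuspended in fresh LB and seeded at 5×10^5 CFU/mL with recombinant protein at 50, 25 and 12.5 μg/mL (two-fold series), in triplicate. Plates were shaken at 175 rpm, 37° C, and OD600 was read every 30 min. MIC was the lowest concentration with no growth.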

The subject of the next assay is Klebsiella pneumonia. Kind of assay: MIC against Gram-negative bacteria: Klebsiella pneumonia. To be noted: for MIC (μg/mL) K. pneumonia / MIC against K. pneumonia: 5×10^5 CFU/mL; for MIC against K. pneumonia: 96-well plate, 37° C., 10 h. Summed up:
as §1

The next assay relates to Pseudomonas aeruginosa. Briefly: MIC against Gram-negative bacteria: Pseudomonas aeruginosa. To be noted: for MIC (μg/mL) P. aeruginosa / MIC against P. aeruginosa: 5×10^5 CFU/mL; for MIC against P. aeruginosa: 96-well plate, 37° C., 10 h. Summed up: as §1
The test system of a further assay is Serratia marcescens. Kind of assay: MIC against Gram-negative bacteria: Serratia marcescens. To be noted: for MIC (μg/mL) S. marcescens / MIC against S. marcescens: 5×10^5 CFU/mL; for MIC against S. marcescens: 96-well plate, 37° C., 10 h. The procedure, abridged: as §1
A further assay deals with Proteus vulgaris. Kind of assay: MIC against Gram-negative bacteria: Proteus vulgaris. To be noted: for MIC (μg/mL) P. vulgaris / MIC against P. vulgaris: 5×10^5 CFU/mL; for MIC against P. vulgaris: 96-well plate, 37° C., 10 h. The procedure, abridged:
as §1

The subject of the next assay is Citrobacter diversus. Briefly: MIC against Gram-negative bacteria: Citrobacter diversus. Conditions: for MIC (μg/mL) C. diversus / MIC against C. diversus: 5×10^5 CFU/mL; for MIC against C. diversus: 96-well plate, 37° C., 10 h. The procedure, abridged: as §1
Another assay deals with Moraxella catarrhalis. Briefly: MIC against Gram-negative bacteria: Moraxella catarrhalis. Conditions: for MIC (μg/mL) M. catarrhalis / MIC against M. catarrhalis: 5×10^5 CFU/mL; for MIC against M. catarrhalis: 96-well plate, 37° C., 10 h. Summed up: as §1
A further assay deals with E. coli BL21. Kind of assay: MIC against Gram-negative bacteria: E. coli BL21. Conditions: for MIC (μg/mL) E. coli BL21 / MIC against E. coli BL21: 5×10^5 CFU/mL; for MIC against E. coli BL21: 96-well plate, 37° C., 10 h. Summed up: as §1
A further assay deals with Aeromonas hydrophila. Briefly: MIC against Gram-negative bacteria: Aeromonas hydrophila. To be noted: for MIC (μg/mL) A. hydrophila / MIC against A. hydrophila: 5×10^5 CFU/mL; for MIC against A. hydrophila: 96-well plate, 37° C., 10 h. Summed up:
as §1

Another assay deals with Proteus mirabilis. Briefly: MIC against Gram-negative bacteria: Proteus mirabilis. Conditions: for MIC (μg/mL) P. mirabilis / MIC against P. mirabilis: 5×10^5 CFU/mL; for MIC against P. mirabilis: 96-well plate, 37° C., 10 h. Summed up:
as §1

[1] abbreviates: E. cloacae, 10 h cultivation at 37° C.
The mark [2] stands for this setting: K. pneumonia, 10 h cultivation at 37° C.
Where [3] appears, read: P. aeruginosa, 10 h cultivation at 37° C.
Setting [4] is: S. marcescens, 10 h cultivation at 37° C.
[5] abbreviates: P. vulgaris, 10 h cultivation at 37° C.
Where [6] appears, read: C. diversus, 10 h cultivation at 37° C.
Setting [7] is: M. catarrhalis, 10 h cultivation at 37° C.
The mark [8] stands for this setting: E. coli BL21, 10 h cultivation at 37° C.
[9] abbreviates: A. hydrophila, 10 h cultivation at 37° C.
[10] abbreviates: P. mirabilis, 10 h cultivation at 37° C.

A word on the MIC: it is the least concentration at which growth counts as inhibited. High values mean weaker potency, low ones greater potency. On to “PRT164 (YKDPCANVSCLNGATCDSDGLNGTCICAPGFTGEECD; listed as Homo sapiens)”, for which the “MIC (μg/mL) E. cloacae” value against Enterobacter cloacae (setting [1]) is 25 µg/mL. The MIC in the assay on E. coli DH5α was determined as 25 µg/mL. Besides, the “MIC (μg/mL) K. pneumonia” value with Klebsiella pneumonia (setting [2]) was 12.5 µg/mL. The “MIC (μg/mL) P. aeruginosa” value against Pseudomonas aeruginosa (setting [3]) was determined as 25 µg/mL. Further, in the assay with Serratia marcescens (setting [4]), the “MIC (μg/mL) S. marcescens” value turned out to be 12.5 µg/mL. Further, the “MIC (μg/mL) P. vulgaris” value against Proteus vulgaris (setting [5]) was found to be 50 µg/mL. Further, the “MIC (μg/mL) C. diversus” value with Citrobacter diversus (setting [6]) worked out at 12.5 µg/mL. In addition, the “MIC (μg/mL) M. catarrhalis” value in the assay on Moraxella catarrhalis (setting [7]) is 50 µg/mL. Besides, the “MIC (μg/mL) E. coli BL21” value against E. coli BL21 (setting [8]) was found to be 50 µg/mL. Besides, the “MIC (μg/mL) A. hydrophila” value in the assay on Aeromonas hydrophila (setting [9]) is 50 µg/mL. The “MIC (μg/mL) P. mirabilis” value against Proteus mirabilis (setting [10]) was 12.5 µg/mL.
Take “PRT1209 (ATEDCASNPCQNGGVCNPSPAGGYYCKCSALYIGTHCE; listed as Homo sapiens)”: the “MIC against E. cloacae” value against Enterobacter cloacae (Enterobacter cloacae) stood at 25 µg/mL. The same substance displayed an MIC against E. coli DH5α of 50 µg/mL. For the same substance, in the assay on Klebsiella pneumonia (Klebsiella pneumonia), the “MIC against K. pneumonia” value is 50 µg/mL. For the same substance, the “MIC against P. aeruginosa” value against Pseudomonas aeruginosa (Pseudomonas aeruginosa) is 25 µg/mL. In the assay on Serratia marcescens (Serratia marcescens), the “MIC against S. marcescens” value stood at 12.5 µg/mL. The “MIC against P. vulgaris” value against Proteus vulgaris (Proteus vulgaris) is 25 µg/mL. For the same substance, the “MIC against C. diversus” value in the assay on Citrobacter diversus (Citrobacter diversus) came out at 25 µg/mL. The “MIC against M. catarrhalis” value against Moraxella catarrhalis (Moraxella catarrhalis) was 12.5 µg/mL. Moreover, the “MIC against E. coli BL21” value with E. coli BL21 (E. coli BL21) came to 12.5 µg/mL. For the same substance, the “MIC against A. hydrophila” value in the assay on Aeromonas hydrophila (Aeromonas hydrophila) came out at 12.5 µg/mL. The “MIC against P. mirabilis” value against Proteus mirabilis (Proteus mirabilis) came out at 12.5 µg/mL.
In the case of “PRT503 (CACPLTIASNNFSPTCHLNDGDEVVCDWCAPGYSGAWCERCADGYYGNPTVPGESCVP; listed as Homo sapiens)”, in the assay with Enterobacter cloacae, the “MIC against E. cloacae” value was 12.5 µg/mL. The substance further gave an MIC with E. coli DH5α of 12.5 µg/mL. In addition, the “MIC against K. pneumonia” value in the assay on Klebsiella pneumonia was 25 µg/mL. Moreover, the “MIC against P. aeruginosa” value with Pseudomonas aeruginosa is 50 µg/mL. For the same substance, the “MIC against S. marcescens” value against Serratia marcescens is 50 µg/mL. The “MIC against P. vulgaris” value in the assay with Proteus vulgaris was 12.5 µg/mL. In the assay on Citrobacter diversus, the “MIC against C. diversus” value is 50 µg/mL. For the same substance, in the assay on Moraxella catarrhalis, the “MIC against M. catarrhalis” value was 12.5 µg/mL. Besides, in the assay with E. coli BL21, the “MIC against E. coli BL21” value turned out to be 25 µg/mL. In addition, the “MIC against A. hydrophila” value against Aeromonas hydrophila was 25 µg/mL. For the same substance, the “MIC against P. mirabilis” value in the assay on Proteus mirabilis is 50 µg/mL.
For “PRT824 (YGPGCEQLCGCLNGGSCDAATGACRCPTGFLGTDCN; listed as Homo sapiens)”, in the assay with Enterobacter cloacae (setting [1]), the “MIC (μg/mL) E. cloacae” value came to 12.5 µg/mL. In the assay on E. coli DH5α, this substance showed an MIC of 12.5 µg/mL. Moreover, the “MIC (μg/mL) K. pneumonia” value against Klebsiella pneumonia (setting [2]) worked out at 25 µg/mL. Also, the “MIC (μg/mL) P. aeruginosa” value in the assay on Pseudomonas aeruginosa (setting [3]) was 50 µg/mL. Besides, in the assay on Serratia marcescens (setting [4]), the “MIC (μg/mL) S. marcescens” value is 25 µg/mL. Further, the “MIC (μg/mL) P. vulgaris” value against Proteus vulgaris (setting [5]) was 50 µg/mL. The “MIC (μg/mL) C. diversus” value against Citrobacter diversus (setting [6]) was determined as 50 µg/mL. Further, the “MIC (μg/mL) M. catarrhalis” value in the assay with Moraxella catarrhalis (setting [7]) came to 25 µg/mL. In the assay with E. coli BL21 (setting [8]), the “MIC (μg/mL) E. coli BL21” value is 25 µg/mL. Besides, in the assay on Aeromonas hydrophila (setting [9]), the “MIC (μg/mL) A. hydrophila” value was 25 µg/mL. The “MIC (μg/mL) P. mirabilis” value in the assay on Proteus mirabilis (setting [10]) came to 12.5 µg/mL.
Regarding “PRT996 (DIDECRSSPCANGGQCQDQPGAFHCKCLPGFEGPRCQ; listed as Homo sapiens)”, the MIC in the assay on Enterobacter cloacae (setting [1]) came to 12.5 µg/mL; in the assay on E. coli DH5α it was 25 µg/mL; in the assay with Klebsiella pneumonia (setting [2]), 12.5 µg/mL; against Pseudomonas aeruginosa (setting [3]), 25 µg/mL; against Serratia marcescens (setting [4]), 12.5 µg/mL; against Proteus vulgaris (setting [5]), 25 µg/mL. In addition, the MIC against Citrobacter diversus (setting [6]) was 12.5 µg/mL; against Moraxella catarrhalis (setting [7]) it was 25 µg/mL; in the assay with E. coli BL21 (setting [8]) it was 12.5 µg/mL; with Aeromonas hydrophila (setting [9]) it was 100 µg/mL; in the assay with Proteus mirabilis (setting [10]), 12.5 µg/mL.
